Entries after “also recorded” stand apart in the source; their conditions may differ. Marks after values point to notes of the source that are not given here. Peptide text beside a SMILES is read from it. * marks the point of attachment. Cbz = O=C(OCc1ccccc1)*; CH2F = FC*

Data set [1] relates to immature LC (Langerhans cells). The experiment in a line: Apoptosis of immature LC, flow cytometry of PI stained nuclei (sub 2N particles) / annexin V. Format: cell-based, human. Particulars: for induction of apoptosis / death of immature LC by the substance on its own: no TNFα. (In general: In flow cytometry, cells or beads pass a laser one at a time.)
The subject of data set [2] is immature LC (Langerhans cells). The experiment in a line: Survival of immature LC, viable cell count with trypan blue exclusion. Particulars: 1000 nM tRA; Compound II 1000 nM, Z-Vad-fmk 50 nM.
Data set [3] deals with immature LC (Langerhans cells). The experiment in a line: Activation of immature LC: HLA-DR and CD86 expression by flow cytometry. The format is cell-based, human. The note with it: for activation of immature LC (class II / CD86, DRhi-CD86hi) in the presence of TNFα: TNFα 1-10 ng/ml. The arrangement: class II or CD86 upregulation on immature LC: dose or concentration left out as unconfirmed. The protocol: Immature LC were cultured with retinol or vehicle and/or TNFα for 40 h. Cells were washed and incubated with HLA-DR-FITC and CD86-PE or isotype controls for 15 min at 4° C. 10^4 events were then analyzed with a FACScalibur (Becton Dickinson) using CellQuest software (Becton Dickinson). % are given for DRhi CD86hi cells gated as indicated. Data are representative of three experiments on different donors.
FIG. 3A: Day 6 immature LC were cultured for 40 h with TNFα and/or retinoids or vehicle as indicated. Cells were washed and stained with HLA-DR-FITC and CD86-PE or isotype controls for 15 min at 4° C. 10^4 events were then analyzed with a FACScalibur (Becton Dickinson) using CellQuest software (Becton Dickinson). Data are given for DRhi/CD86 hi cells gated as indicated, and are representative of 10 experiments on different donors.
Percentages of DRhi/CD86 hi cells are represented and results are expressed as the mean±SD of at last three experiments on different donors.
Flow Cytometry Analysis. 1×10^5 cells were incubated in 96-well plates (Becton Dickinson Labware, Franklin Lakes, N.J.) for 15 min at 4 ° C. in PBS, 2% human AB serum, and 0.01 M NaN3, with FITC-conjugated anti-DR (Immunotech, Marseille, France) and PE-conjugated CD86 (Pharmingen, San Diego, Calif.) at the appropriate concentration, or with control isotype-matched irrelevant mAbs at the same concentration. After washing, 10^4 events were analyzed with a FACScalibur (Becton Dickinson Immunocytometry Systems, Mountain View, Calif.) using CellQuest software.

For data set [4], the system named is T-cells stimulated by LC. Format: cell-based, human.
Data set [5] is described as follows: in vitro. Particulars: human.
The test system of data set [6] is NF-κB complexes. In words: Electrophoretic mobility shift assay of nuclear NF-κB complexes in immature LC. The format is cell-based, human. The note with it: retinoid 1 μM 6 h, then TNFα 50 ng/ml 30 min; result in words. On the technique in general: In EMSA bound probe runs differently from free probe, usually more slowly.
Data set [7] has as its target T1, RARα AF2 (Homo sapiens, UniProt P10276). Further: key: '+' = agonist; '(+)' = weak agonist; '−' = antagonist; '0' = absence of agonist and antagonist activities.
T1 construct: expressed in transfected cells
T1 sequence (P10276 183-417 limits assumed): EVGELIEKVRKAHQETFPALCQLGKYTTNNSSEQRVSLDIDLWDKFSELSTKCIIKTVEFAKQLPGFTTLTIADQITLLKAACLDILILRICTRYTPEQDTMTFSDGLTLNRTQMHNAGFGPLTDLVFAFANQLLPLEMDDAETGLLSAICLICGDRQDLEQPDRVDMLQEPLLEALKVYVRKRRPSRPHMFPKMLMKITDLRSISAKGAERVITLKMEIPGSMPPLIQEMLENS
Particulars: retinoid activity, reporter cells; cited from earlier work.

Data set [8] deals with T2, RARβ AF2 (Homo sapiens, UniProt P10826).
T2 construct: expressed in transfected cells
T2 sequence (P10826 183-417 limits assumed): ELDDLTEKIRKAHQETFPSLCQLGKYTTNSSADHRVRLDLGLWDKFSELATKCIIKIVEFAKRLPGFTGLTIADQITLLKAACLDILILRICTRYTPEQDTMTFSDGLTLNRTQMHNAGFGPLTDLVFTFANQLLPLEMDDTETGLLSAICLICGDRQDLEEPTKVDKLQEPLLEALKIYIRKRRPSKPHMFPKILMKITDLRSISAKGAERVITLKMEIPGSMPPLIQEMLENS
The note with it: retinoid activity, reporter cells; cited from earlier work.

In data set [9] the target is T3, RARγ AF2 (Homo sapiens, UniProt P13631). Further: key: '+' = agonist; '(+)' = weak agonist; '−' = antagonist; '0' = absence of agonist and antagonist activities.
T3 construct: expressed in transfected cells
T3 sequence (P13631 185-419 limits assumed): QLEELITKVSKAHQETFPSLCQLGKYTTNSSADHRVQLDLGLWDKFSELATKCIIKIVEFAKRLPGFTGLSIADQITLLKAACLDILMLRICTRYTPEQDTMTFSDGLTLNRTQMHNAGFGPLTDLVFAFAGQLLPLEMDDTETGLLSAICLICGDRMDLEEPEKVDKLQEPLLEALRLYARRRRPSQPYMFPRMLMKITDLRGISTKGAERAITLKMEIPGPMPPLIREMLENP
The note with it: retinoid activity, reporter cells; cited from earlier work.

The subject of data set [10] is RXR AF2. The note with it: retinoid activity, reporter cells; cited from earlier work.
For data set [11], the target named is T4, RXRα homodimer [(RXR)2] (Homo sapiens, UniProt P19793). Further: key: '+' = agonist; '(+)' = weak agonist; '−' = antagonist; '0' = absence of agonist and antagonist activities.
T4 construct: expressed in transfected cells
T4 sequence (P19793 1-462): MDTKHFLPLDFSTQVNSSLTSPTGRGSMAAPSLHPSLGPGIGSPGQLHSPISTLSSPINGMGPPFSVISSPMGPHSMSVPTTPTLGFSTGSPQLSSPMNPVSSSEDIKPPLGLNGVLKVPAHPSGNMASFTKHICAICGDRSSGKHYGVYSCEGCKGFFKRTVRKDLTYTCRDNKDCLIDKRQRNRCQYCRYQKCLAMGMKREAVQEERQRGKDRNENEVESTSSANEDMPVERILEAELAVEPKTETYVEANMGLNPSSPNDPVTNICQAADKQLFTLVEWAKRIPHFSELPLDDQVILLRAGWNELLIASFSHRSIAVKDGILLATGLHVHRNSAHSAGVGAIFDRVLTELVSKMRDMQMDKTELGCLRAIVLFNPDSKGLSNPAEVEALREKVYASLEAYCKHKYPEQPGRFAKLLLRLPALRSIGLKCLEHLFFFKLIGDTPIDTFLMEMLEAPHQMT
Particulars: retinoid activity, transient transfection; cited from earlier work.

The target in data set [12] is T5, RARα-RXRα heterodimer (Homo sapiens, UniProt P10276+P19793).
T5 construct: expressed in transfected cells
T5 sequence (P10276 1-462): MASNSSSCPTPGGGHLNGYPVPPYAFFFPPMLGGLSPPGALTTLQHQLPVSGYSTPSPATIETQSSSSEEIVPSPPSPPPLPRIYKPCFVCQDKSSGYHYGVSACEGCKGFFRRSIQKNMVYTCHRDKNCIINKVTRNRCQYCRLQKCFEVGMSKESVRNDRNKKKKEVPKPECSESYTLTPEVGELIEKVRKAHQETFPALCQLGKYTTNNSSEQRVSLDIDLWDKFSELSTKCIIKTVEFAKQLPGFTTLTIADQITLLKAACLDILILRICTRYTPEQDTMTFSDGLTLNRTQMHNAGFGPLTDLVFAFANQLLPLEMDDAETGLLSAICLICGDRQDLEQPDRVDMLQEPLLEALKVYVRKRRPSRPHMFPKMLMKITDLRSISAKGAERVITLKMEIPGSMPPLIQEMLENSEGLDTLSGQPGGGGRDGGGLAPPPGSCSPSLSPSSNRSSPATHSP
T5 sequence (P19793 1-462): T4 sequence (P19793 1-462)
The note with it: retinoid activity, transient transfection; cited from earlier work.

Where [13] appears, read: 1 nM, two days in culture, mean ± SD.
Setting [14] is: 10 nM, two days in culture, mean ± SD.
[15] abbreviates: 100 nM, two days in culture, mean ± SD.
The mark [16] stands for this setting: 1 μM, two days in culture, mean ± SD.
Wherever RARβ AF2 is given: key: '+' = agonist; '(+)' = weak agonist; '−' = antagonist; '0' = absence of agonist and antagonist activities.

For the compound `COC(=O)C[C@H](NC(=O)[C@H](C)NC(=O)[C@@H](NC(=O)OCc1ccccc1)C(C)C)C(=O)CF` [Z-Vad-fmk, reference compound] (Cbz-Val-Ala-Asp(OMe)-CH2F), the “percentage of apoptotic (<2N) particles” value in [1] (agent + Cmpd. I 1 μM, Cmpd. II 1 μM, Cmpd. VIII 1 μM, Z-Vad 50 μM, TNFα 10 ng/ml, CD40L coculture) was 9 ± 7%; in [1] (agent + Compound I 100 nM + SR11237 100 nM, Cmpd. II 1 μM, Cmpd. VIII 1 μM, Z-Vad 50 μM, TNFα 10 ng/ml, CD40L coculture), 11 ± 4%; in data set [1] (agent + tRA 1 μM, Cmpd. II 1 μM, Cmpd. VIII 1 μM, Z-Vad 50 μM, TNFα 10 ng/ml, CD40L coculture), 9 ± 4%; in data set [1] (agent alone (column 0), Cmpd. II 1 μM, Cmpd. VIII 1 μM, Z-Vad 50 μM, TNFα 10 ng/ml, CD40L coculture), “≦5%”. The “inhibition of retinoid-induced apoptosis / cell death of immature LC” value in [1] (result in words) is “blocked”. In addition, the “inhibition of tRA mortality” value in data set [2] is listed as over 80%.
`CC1=C(/C=C/C(C)=C/C=C/C(C)=C/CO)C(C)(C)CCC1` [Rol, retinol]: the “percentage of apoptotic (<2N) particles” value in data set [1] (setting [13]) is listed as “≦5^(a) %”; in data set [1] (setting [14]), “≦5%”; in data set [1] (setting [15]), “≦5%”; in data set [1] (setting [16]), 17±8%; in data set [1] (Table 3C, retinoid 1 μM in medium, no inhibitor), 17 ± 8%. In [1] (result in words), the “induction of apoptosis / death of immature LC by the substance on its own” value is “increased”. Also, in [3], the “minimum effective dose for significant LC activation” value was 1 µM. Further, the “synergy with IL-1β to activate LC” value in data set [3] (IL-1β 1-10 ng/ml, result in words) is listed as “synergized with IL-1β”. The “activation of immature LC (class II / CD86, DRhi-CD86hi) in the presence of TNFα” value in data set [3] (result in words, listed as Retinol) is recorded as “synergize with TNFα; also recorded: upregulate”; in data set [3] (result in words, listed as retinol) it was “synergized with TNFα”. Further, the “class II or CD86 upregulation on immature LC” value in [3] (in the absence or at low concentrations of TNFα) is recorded as “did not significantly induce”. The “allogeneic T-lymphocyte proliferation (MLR)” value in data set [4] is recorded as “increase alloreactive proliferative response”. In data set [5], this compound gave a cytotoxicity at 2 days, 1 μM of 20%. For the same compound, the cytotoxicity at 3 days, 1 μM in data set [5] was 40%.
For the compound `CC1(C)CCC(C)(C)c2cc(C3(c4ccc(C(=O)O)cc4)OCCO3)ccc21` [SR11237, 4-[2-(5,6,7,8-tetrahydro-5,5,8,8-tetramethyl-2-naphthalenyl)-1,3-dioxolan-2-yl]benzoic acid, reference compound], the “percentage of apoptotic (<2N) particles” value in data set [1] (setting [13]), in data set [1] (setting [14]), in [1] (setting [15]) and in [1] (setting [16]) was “≦5%” throughout. The “induction of apoptosis / death of immature LC by the substance on its own” value in data set [1] (result in words) is reported as “neither SR11237 (Table 3) nor BMS749 exhibited an apoptotic effect”; in data set [1] (result in words, listed as SR1 1237) it was “had no effects on its own”. Also, in [1] (result in words), the “synergy with the pan-RXR agonist SR11237 to induce LC death” value was “asynergistic effect on LC death induced by the selective RARα agonist”. Further, the “activation of immature LC (class II / CD86, DRhi-CD86hi) in the presence of TNFα” value in data set [3] (result in words) is “also synergized with TNFα; also recorded: upregulate”. Further, the “enhancement of antigen presentation to antigen-specific T-cells in synergy with TNFα” value in data set [4] is given as “synergized with TNFα”. In addition, the “nuclear translocation / DNA-binding activity of NF-κB complexes with TNFα” value in data set [6] is listed as “synergize with TNFα”. In addition, the “RARα AF2” value in [7] is given as 0. The “RARβ AF2” value in [8] is 0. Besides, the “RARγ AF2” value in [9] is listed as 0. Further, the “RXR AF2” value in [10] is recorded as “+”. Besides, in data set [11], the “(RXR)2 AF2” value is on record as “+”. Further, the “RARα-RXR DR5” value in [12] is 0.

These data come from US20020090352A1, “Compositions and methods for use in modulating immune system function” (priority 2000, published 2002).
